Publication PMC4979471 (Cell Death Discovery, 2015)
Read-outs that look alike come from different tables or passages of the source.

Legend:
Experiment in all cases: Kinase selectivity, P33-radiolabeled assay
Type in all cases: biochemical
[1] = biological target: T1, P38b/MAPK11 (Homo sapiens, UniProt Q15759); conditions: 10 μM ATP
T1 construct: purchased Reaction Biology Corp
How it was run: (§1)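 ATP at 10 μM; test article at 10 μM, single point, two replicates. Output is activity as % of DMSO.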

[2] = biological target: T2, TLK2 (Homo sapiens, UniProt Q86UE8); conditions: 10 μM ATP
T2 construct: purchased Reaction Biology Corp
T2 sequence (Q86UE8 whole entry): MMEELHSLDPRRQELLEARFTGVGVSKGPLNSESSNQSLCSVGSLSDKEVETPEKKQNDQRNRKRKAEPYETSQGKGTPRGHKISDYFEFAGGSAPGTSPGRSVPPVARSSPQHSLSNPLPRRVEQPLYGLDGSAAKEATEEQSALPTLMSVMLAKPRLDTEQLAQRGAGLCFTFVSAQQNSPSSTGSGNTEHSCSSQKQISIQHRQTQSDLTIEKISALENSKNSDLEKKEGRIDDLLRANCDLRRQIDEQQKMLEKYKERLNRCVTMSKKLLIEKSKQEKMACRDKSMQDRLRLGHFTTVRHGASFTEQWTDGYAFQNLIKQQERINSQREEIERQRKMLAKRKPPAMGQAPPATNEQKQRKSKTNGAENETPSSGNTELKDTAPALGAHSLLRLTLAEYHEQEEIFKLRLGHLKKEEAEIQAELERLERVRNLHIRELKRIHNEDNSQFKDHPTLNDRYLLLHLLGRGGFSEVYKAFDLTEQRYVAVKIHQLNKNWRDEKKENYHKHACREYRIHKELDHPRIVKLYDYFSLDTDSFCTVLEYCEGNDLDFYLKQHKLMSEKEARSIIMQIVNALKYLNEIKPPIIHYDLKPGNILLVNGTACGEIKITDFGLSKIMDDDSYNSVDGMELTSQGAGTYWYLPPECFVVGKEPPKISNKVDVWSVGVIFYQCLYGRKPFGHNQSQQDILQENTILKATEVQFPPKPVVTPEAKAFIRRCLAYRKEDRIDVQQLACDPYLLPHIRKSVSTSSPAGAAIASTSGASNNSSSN
How it was run: as §1

[3] = biological target: T3, PIM3 (Homo sapiens, UniProt Q86V86); conditions: 10 μM ATP
T3 construct: purchased Reaction Biology Corp
How it was run: as §1

[4] = biological target: T4, ZIPK/DAPK3 (Homo sapiens, UniProt O43293); conditions: 10 μM ATP
T4 construct: purchased Reaction Biology Corp
T4 sequence (O43293 whole entry): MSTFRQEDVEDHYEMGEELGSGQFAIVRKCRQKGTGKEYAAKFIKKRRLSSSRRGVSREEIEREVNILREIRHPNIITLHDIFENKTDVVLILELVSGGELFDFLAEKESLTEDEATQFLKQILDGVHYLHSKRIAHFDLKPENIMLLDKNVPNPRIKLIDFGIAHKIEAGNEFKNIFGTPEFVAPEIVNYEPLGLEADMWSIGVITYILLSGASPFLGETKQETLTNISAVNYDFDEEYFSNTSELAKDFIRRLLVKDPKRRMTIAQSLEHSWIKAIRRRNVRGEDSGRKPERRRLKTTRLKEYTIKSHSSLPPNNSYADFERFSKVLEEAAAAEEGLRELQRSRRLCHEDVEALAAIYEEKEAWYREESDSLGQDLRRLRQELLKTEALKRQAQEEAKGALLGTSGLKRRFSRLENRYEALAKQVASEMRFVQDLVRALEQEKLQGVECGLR
How it was run: as §1

[5] = biological target: T5, LOK/STK10 (Homo sapiens, UniProt O94804); conditions: 10 μM ATP
T5 construct: purchased Reaction Biology Corp
T5 sequence (O94804 whole entry): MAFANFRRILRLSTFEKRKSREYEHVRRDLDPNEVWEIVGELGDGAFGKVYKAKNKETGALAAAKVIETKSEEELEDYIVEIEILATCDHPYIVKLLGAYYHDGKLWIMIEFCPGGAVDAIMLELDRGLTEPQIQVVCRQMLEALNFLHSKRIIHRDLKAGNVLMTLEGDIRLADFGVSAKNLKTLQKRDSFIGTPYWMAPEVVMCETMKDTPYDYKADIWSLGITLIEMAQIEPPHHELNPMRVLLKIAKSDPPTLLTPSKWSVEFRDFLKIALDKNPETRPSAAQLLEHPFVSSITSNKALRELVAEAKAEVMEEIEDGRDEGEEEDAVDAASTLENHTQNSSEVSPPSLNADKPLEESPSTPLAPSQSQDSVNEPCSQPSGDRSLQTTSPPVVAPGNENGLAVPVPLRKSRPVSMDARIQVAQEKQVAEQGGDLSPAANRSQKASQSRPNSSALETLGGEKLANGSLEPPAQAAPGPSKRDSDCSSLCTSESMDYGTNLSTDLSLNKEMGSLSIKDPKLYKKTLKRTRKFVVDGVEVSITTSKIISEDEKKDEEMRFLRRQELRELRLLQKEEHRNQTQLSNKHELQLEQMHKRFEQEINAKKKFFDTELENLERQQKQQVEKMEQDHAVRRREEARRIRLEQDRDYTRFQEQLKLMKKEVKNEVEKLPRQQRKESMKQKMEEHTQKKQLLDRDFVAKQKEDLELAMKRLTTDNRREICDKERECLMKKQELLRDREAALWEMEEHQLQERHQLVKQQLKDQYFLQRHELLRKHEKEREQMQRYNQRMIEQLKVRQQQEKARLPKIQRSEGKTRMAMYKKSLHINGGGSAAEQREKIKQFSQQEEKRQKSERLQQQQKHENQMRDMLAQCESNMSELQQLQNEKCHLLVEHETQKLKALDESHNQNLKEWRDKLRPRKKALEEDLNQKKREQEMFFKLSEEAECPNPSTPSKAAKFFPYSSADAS
How it was run: as §1

[6] = biological target: T6, SRMS (Homo sapiens, UniProt Q9H3Y6); conditions: 10 μM ATP
T6 construct: purchased Reaction Biology Corp
How it was run: as §1

[7] = biological target: T7, Aurora B (Homo sapiens, UniProt Q96GD4)
T7 construct: purchased Reaction Biology Corp
T7 sequence (Q96GD4 whole entry): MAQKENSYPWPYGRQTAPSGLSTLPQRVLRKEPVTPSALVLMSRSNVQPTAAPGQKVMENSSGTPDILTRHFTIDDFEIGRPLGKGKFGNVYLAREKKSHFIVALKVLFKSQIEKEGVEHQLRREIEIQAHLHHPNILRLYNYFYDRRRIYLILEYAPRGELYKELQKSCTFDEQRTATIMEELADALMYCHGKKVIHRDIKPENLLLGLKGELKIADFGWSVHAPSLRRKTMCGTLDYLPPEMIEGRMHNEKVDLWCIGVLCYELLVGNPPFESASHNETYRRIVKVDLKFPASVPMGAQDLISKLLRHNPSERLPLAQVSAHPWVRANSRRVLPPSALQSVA
How it was run: as §1

[8] = biological target: T8, GRK4 (Homo sapiens, UniProt P32298); conditions: 10 μM ATP
T8 construct: purchased Reaction Biology Corp
T8 sequence (P32298 whole entry): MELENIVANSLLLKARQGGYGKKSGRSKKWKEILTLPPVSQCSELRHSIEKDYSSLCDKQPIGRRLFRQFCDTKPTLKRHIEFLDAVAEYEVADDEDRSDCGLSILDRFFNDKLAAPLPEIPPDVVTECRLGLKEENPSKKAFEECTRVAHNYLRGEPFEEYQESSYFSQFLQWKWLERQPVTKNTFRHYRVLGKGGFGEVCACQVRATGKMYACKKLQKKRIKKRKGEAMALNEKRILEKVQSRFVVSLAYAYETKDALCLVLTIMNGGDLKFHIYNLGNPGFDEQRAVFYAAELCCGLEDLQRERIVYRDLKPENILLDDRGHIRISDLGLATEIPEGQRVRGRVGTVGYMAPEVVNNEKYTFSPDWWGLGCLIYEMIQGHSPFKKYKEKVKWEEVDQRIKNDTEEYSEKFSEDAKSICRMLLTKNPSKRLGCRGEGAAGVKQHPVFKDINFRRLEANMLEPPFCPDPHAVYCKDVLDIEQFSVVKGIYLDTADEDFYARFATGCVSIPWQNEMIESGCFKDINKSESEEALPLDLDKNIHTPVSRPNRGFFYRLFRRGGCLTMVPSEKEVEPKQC
How it was run: as §1

[9] = biological target: T9, HCK (Homo sapiens, UniProt P08631); conditions: 10 μM ATP
T9 construct: purchased Reaction Biology Corp
T9 sequence (P08631 whole entry): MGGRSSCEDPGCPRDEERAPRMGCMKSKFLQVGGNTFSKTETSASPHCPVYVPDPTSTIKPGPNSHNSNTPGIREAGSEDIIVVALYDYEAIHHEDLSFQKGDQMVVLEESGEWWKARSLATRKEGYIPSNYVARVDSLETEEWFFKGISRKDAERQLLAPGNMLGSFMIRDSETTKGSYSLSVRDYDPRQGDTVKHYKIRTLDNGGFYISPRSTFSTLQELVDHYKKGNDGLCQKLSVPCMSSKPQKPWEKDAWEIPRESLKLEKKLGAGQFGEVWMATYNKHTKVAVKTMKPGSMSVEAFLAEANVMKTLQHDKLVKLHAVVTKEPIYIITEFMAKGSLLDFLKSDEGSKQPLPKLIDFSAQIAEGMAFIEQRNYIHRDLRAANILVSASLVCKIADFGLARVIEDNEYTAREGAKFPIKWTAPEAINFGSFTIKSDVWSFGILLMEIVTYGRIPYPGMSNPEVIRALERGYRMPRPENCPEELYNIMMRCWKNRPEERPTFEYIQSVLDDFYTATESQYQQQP
How it was run: as §1

[10] = biological target: T10, NEK7 (Homo sapiens, UniProt Q8TDX7); conditions: 10 μM ATP
T10 construct: purchased Reaction Biology Corp
T10 sequence (Q8TDX7 whole entry): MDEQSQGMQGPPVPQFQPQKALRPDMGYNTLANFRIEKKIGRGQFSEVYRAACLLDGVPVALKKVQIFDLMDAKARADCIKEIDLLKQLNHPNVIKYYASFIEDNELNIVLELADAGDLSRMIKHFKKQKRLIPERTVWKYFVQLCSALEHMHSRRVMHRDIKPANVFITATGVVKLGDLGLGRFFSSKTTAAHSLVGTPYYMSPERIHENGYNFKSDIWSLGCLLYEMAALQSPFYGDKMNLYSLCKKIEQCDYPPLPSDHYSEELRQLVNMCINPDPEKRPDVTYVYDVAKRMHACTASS
How it was run: as §1

[11] = biological target: T11, ULK1 (Homo sapiens, UniProt O75385); conditions: 10 μM ATP
T11 construct: purchased Reaction Biology Corp
T11 sequence (O75385 1-1050): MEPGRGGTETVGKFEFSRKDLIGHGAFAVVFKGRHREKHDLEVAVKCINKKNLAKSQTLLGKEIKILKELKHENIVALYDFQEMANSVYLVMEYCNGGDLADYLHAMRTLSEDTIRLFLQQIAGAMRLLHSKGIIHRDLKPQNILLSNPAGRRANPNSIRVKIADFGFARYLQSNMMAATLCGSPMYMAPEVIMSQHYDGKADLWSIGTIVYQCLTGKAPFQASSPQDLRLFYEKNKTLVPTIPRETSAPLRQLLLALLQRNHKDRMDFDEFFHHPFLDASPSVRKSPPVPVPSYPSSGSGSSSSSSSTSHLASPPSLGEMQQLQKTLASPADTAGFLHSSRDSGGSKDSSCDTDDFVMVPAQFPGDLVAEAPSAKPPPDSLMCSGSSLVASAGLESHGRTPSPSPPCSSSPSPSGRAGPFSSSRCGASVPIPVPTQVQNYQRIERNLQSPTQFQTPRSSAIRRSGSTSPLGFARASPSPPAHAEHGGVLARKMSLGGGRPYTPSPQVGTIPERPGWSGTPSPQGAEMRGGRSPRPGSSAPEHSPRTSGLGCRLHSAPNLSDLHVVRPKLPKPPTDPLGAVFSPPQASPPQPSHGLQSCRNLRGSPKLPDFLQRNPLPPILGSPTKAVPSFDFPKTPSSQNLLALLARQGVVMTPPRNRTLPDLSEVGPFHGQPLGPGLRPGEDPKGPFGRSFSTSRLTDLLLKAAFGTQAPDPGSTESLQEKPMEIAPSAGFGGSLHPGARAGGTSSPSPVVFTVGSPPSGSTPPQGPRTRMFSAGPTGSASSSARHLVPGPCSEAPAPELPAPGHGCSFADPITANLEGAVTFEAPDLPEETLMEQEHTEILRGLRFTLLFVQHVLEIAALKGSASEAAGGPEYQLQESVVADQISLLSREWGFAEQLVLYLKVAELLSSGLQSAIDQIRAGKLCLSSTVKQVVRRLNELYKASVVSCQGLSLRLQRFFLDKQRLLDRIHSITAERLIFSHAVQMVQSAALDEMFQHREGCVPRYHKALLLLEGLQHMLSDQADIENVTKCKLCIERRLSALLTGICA
How it was run: as §1

[12] = read-out: % Enzyme Activity (relative to DMSO controls) AVG
[13] = read-out: % Enzyme Activity (relative to DMSO controls) Data 1
[14] = read-out: % Enzyme Activity (relative to DMSO controls) Data 2

T1 sequence (Q15759 whole entry): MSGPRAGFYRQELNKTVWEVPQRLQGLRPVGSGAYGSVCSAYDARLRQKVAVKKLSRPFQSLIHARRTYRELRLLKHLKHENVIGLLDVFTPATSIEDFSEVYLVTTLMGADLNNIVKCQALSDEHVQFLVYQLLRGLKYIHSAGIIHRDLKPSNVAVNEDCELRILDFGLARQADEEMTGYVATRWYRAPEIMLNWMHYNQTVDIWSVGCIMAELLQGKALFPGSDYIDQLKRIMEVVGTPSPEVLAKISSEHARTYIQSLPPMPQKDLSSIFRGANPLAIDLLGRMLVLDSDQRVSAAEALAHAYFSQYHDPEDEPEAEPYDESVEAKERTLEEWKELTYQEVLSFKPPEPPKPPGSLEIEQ

Structure (SMILES): CC(C)(C)C(=O)N1N=CC[C@H]1c1ccccc1 [GSK′963]
- remaining activity at 10 µM [1, 12]: 102%
- remaining activity at 10 µM [1, 13]: 104%
- remaining activity at 10 µM [1, 14]: 99.3%
- remaining activity at 10 µM [2, 12]: 93.2%
- remaining activity at 10 µM [2, 13]: 92.9%
- remaining activity at 10 µM [2, 14]: 93.5%
- remaining activity at 10 µM [3, 12]: 116%
- remaining activity at 10 µM [3, 13]: 119%
- remaining activity at 10 µM [3, 14]: 113%
- remaining activity at 10 µM [4, 12]: 111%
- remaining activity at 10 µM [4, 13]: 118%
- remaining activity at 10 µM [4, 14]: 104%
- remaining activity at 10 µM [5, 12]: 94%
- remaining activity at 10 µM [5, 13]: 93.1%
- remaining activity at 10 µM [5, 14]: 95%
- remaining activity at 10 µM [6, 12]: 101%
- remaining activity at 10 µM [6, 13]: 98.6%
- remaining activity at 10 µM [6, 14]: 103%
- remaining activity at 10 µM ([7]; 10 uM, 10 μM ATP, read-out: % Enzyme Activity (relative to DMSO controls) Data 1): 104%
- remaining activity at 10 µM ([7]; 10 uM, 10 μM ATP, read-out: % Enzyme Activity (relative to DMSO controls) Data 2): 98.7%
- remaining activity at 10 µM [7, 12]: 101%
- remaining activity at 10 µM [8, 12]: 97.9%
- remaining activity at 10 µM [8, 13]: 97.9%
- remaining activity at 10 µM [8, 14]: 97.8%
- remaining activity at 10 µM [9, 12]: 96.5%
- remaining activity at 10 µM [9, 13]: 95.5%
- remaining activity at 10 µM [9, 14]: 97.6%
- remaining activity at 10 µM [10, 12]: 98.6%
- remaining activity at 10 µM [10, 13]: 98.1%
- remaining activity at 10 µM [10, 14]: 99%
- remaining activity at 10 µM [11, 12]: 106%
- remaining activity at 10 µM [11, 13]: 106%
- remaining activity at 10 µM [11, 14]: 106%
